These results are taken from patent US20240116985A1, “STAPLED PEPTIDES AND METHODS THEREOF” (priority 2020, published 2024).

Molecules are shown by their SMILES.

This test deals with T1, full-length beta-Catenin (Uniprot ID P35222) (Homo sapiens, UniProt P35222).
T1 construct: 10 nM full-length beta-Catenin (Uniprot ID P35222)
T1 sequence (P35222 1-781): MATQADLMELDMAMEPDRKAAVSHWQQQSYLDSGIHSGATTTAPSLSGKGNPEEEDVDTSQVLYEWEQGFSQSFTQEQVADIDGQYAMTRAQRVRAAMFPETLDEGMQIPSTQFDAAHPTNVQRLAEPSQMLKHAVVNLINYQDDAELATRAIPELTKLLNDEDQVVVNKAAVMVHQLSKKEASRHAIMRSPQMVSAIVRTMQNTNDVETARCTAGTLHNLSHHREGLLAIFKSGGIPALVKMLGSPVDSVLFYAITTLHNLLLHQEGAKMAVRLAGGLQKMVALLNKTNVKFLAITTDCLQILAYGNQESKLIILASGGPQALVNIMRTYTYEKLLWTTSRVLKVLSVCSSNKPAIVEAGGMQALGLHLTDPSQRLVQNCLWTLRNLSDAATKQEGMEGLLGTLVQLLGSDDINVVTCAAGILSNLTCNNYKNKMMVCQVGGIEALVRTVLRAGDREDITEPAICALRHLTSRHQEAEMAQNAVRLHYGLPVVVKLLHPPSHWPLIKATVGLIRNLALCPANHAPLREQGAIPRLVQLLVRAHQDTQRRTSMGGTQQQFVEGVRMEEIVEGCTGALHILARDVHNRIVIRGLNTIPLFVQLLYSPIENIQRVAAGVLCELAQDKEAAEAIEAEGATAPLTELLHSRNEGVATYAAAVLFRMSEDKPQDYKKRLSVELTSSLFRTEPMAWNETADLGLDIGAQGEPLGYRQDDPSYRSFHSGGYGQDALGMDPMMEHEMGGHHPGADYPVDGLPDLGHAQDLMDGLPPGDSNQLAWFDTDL
The test can be described thus: Fluorescence polarization IC50 (beta-catenin / 5FAM-TCF4 10-53 competition). The class given is binding. Conditions: fluorescence polarization; read-out: beta-Catenin FP IC50.

In the case of `CC(=O)N1CCC[C@]12CC=CCCCC1(CCCC=CCCCOC(=O)N3CC[C@@](C(=O)N[C@@H](Cc4ccsc4)C(=O)N[C@@H](Cc4csc5ccccc45)C(=O)N[C@@H](CCC(N)=O)C(N)=O)(C3)NC(=O)[C@H](CC(C)C)NC(=O)[C@H](Cc3ccccc3)NC(=O)[C@H](C)NC(=O)[C@H](C)NC(=O)[C@H](Cn3cc(CC4(C(=O)O)CCCCC4)nn3)NC(=O)[C@H](CC(=O)O)NC1=O)NC(=O)[C@H](CC(C)(C)C)NC(=O)[C@H](CC(=O)O)NC2=O` (stereo partly drawn) [I-2483, Ac-PL3-Asp-Npg-B5-Asp-[CH2CChCO2H]TriAzDap-Ala-Ala-Phe-Leu-PyrS2-3Thi-BztA-Gln-NH2], the 50% inhibitory concentration (IC50) stood at 5 nM.

Consider `CC(=O)N1CCC[C@]12CC=CCCCC1(CCCC=CCCCOC(=O)N3CC[C@@](C(=O)N[C@@H](Cc4ccccc4)C(=O)N[C@@H](Cc4csc5ccccc45)C(=O)N[C@@H](CC(=O)N4CCOCC4)C(N)=O)(C3)NC(=O)[C@H](CC(C)C)NC(=O)[C@H](Cc3ccccc3)NC(=O)[C@H](C)NC(=O)[C@H](CCO)NC(=O)[C@H](CCC(N)=O)NC(=O)[C@H](CC(=O)O)NC1=O)NC(=O)[C@H](CC1CCCCC1)NC(=O)[C@H](CC(N)=O)NC2=O` (stereo partly drawn) [I-2498, Ac-PL3-Asn-Cha-B5-Asp-Gln-Hse-Ala-Phe-Leu-PyrS2-Phe-BztA-MorphAsn-NH2], for which the 50% inhibitory concentration (IC50) stood at 449 nM.

On to `CC(=O)N1CCC[C@]12CC=CCCCC1(CCCC=CCCCOC(=O)N3CC[C@@](C(=O)N[C@@H](Cc4ccccc4)C(=O)N[C@@H](Cc4csc5ccccc45)C(=O)N[C@@H](CC(=O)N4CCOCC4)C(N)=O)(C3)NC(=O)[C@H](CC(C)C)NC(=O)[C@H](Cc3ccccc3)NC(=O)[C@H](C)NC(=O)[C@H]([C@@H](C)O)NC(=O)[C@H](CCC(N)=O)NC(=O)[C@H](CC(=O)O)NC1=O)NC(=O)[C@H](CC1CCCCC1)NC(=O)[C@H](CC(N)=O)NC2=O` (stereo partly drawn) [I-2503, Ac-PL3-Asn-Cha-B5-Asp-Gln-Thr-Ala-Phe-Leu-PyrS2-Phe-BztA-MorphAsn-NH2], for which the IC50 worked out at 1310 nM.

For the molecule `CC(=O)N1CCC[C@]12CC=CCCCCC1(CCCCC=CCOC(=O)N3CC[C@@](C(=O)N[C@@H](Cc4ccccc4C(F)(F)F)C(=O)N[C@@H](Cc4csc5ccccc45)C(=O)N[C@@H](CCC(N)=O)C(N)=O)(C3)NC(=O)[C@H](CC(C)C)NC(=O)[C@H](Cc3ccccc3)NC(=O)[C@H](C)NC(=O)[C@H](C)NC(=O)[C@H](Cc3cccc(C(=O)O)c3)NC(=O)[C@H](CC(=O)O)NC1=O)NC(=O)[C@H](CC(C)(C)C)NC(=O)[C@H](CC(=O)O)NC2=O` (stereo partly drawn) [I-2505, Ac-PL3-Asp-Npg-B6-Asp-3COOHF-Ala-Ala-Phe-Leu-PyrS-2F3MeF-BztA-Gln-NH2], the half-maximal inhibitory concentration (IC50) amounted to 687 nM.

With `CC(=O)N1CCC[C@]12CC=CCCCCC1(CCCCC=CCOC(=O)N3CC[C@@](C(=O)N[C@@H](Cc4ccccc4C(F)(F)F)C(=O)N[C@@H](Cc4csc5ccccc45)C(=O)N[C@@H](C)C(N)=O)(C3)NC(=O)[C@H](CC(C)C)NC(=O)[C@H](Cc3ccccc3)NC(=O)[C@H](C)NC(=O)[C@H](CCC(N)=O)NC(=O)[C@H](Cc3cccc(C(=O)O)c3)NC(=O)[C@H](CC(=O)O)NC1=O)NC(=O)[C@H](CC(C)(C)C)NC(=O)[C@H](CC(=O)O)NC2=O` (stereo partly drawn) [I-2506, Ac-PL3-Asp-Npg-B6-Asp-3COOHF-Gln-Ala-Phe-Leu-PyrS-2F3MeF-BztA-Ala-NH2], the concentration for half-maximal inhibition (IC50) came to 332 nM.

As to `CC(=O)N1CCC[C@]12CC=CCCCCC1(CCCCC=CCOC(=O)N3CC[C@@](C(=O)N[C@@H](Cc4ccccc4C(F)(F)F)C(=O)N[C@@H](Cc4csc5ccccc45)C(=O)N[C@@H](C)C(N)=O)(C3)NC(=O)[C@H](CC(C)C)NC(=O)[C@H](Cc3ccccc3)NC(=O)[C@H](C)NC(=O)[C@H](CCC(N)=O)NC(=O)[C@H](Cc3cccc(C(=O)O)c3)NC(=O)[C@H](CC(=O)O)NC1=O)NC(=O)[C@H](CC(C)(C)C)NC(=O)[C@H](CC(=O)O)NC2=O` (stereo partly drawn) [I-2507, Ac-PL3-Asp-Npg-B6-Asp-3COOHF-Gln-Ala-Phe-Leu-PyrS-2F3MeF-BztA-Ala-NH2], the concentration for half-maximal inhibition (IC50) amounted to 168 nM.

Regarding `CC(=O)N1CCC[C@]12CC=CCCCCC1(CCCCC=CCCOC(=O)N3CC[C@@](C(=O)N[C@@H](Cc4ccccc4C(F)(F)F)C(=O)N[C@@H](Cc4csc5ccccc45)C(=O)N[C@@H](CCC(N)=O)C(N)=O)(C3)NC(=O)[C@H](CC(C)C)NC(=O)[C@H](Cc3ccccc3)NC(=O)[C@H](C)NC(=O)[C@H](C)NC(=O)[C@H](Cc3cccc(C(=O)O)c3)NC(=O)[C@H](CC(=O)O)NC1=O)NC(=O)[C@H](CC(C)(C)C)NC(=O)[C@H](CC(=O)O)NC2=O` (stereo partly drawn) [I-2509, Ac-PL3-Asp-Npg-B6-Asp-3COOHF-Ala-Ala-Phe-Leu-PyrS1-2F3MeF-BztA-Gln-NH2], the IC50 turned out to be 17 nM.

Take `CC(=O)N1CCC[C@]12CC=CCCCCC1(CCCCC=CCCCOC(=O)N3CC[C@@](C(=O)N[C@@H](Cc4ccccc4C(F)(F)F)C(=O)N[C@@H](Cc4csc5ccccc45)C(=O)N[C@@H](CCC(N)=O)C(N)=O)(C3)NC(=O)[C@H](CC(C)C)NC(=O)[C@H](Cc3ccccc3)NC(=O)[C@H](C)NC(=O)[C@H](C)NC(=O)[C@H](Cc3cccc(C(=O)O)c3)NC(=O)[C@H](CC(=O)O)NC1=O)NC(=O)[C@H](CC(C)(C)C)NC(=O)[C@H](CC(=O)O)NC2=O` (stereo partly drawn) [I-2511, Ac-PL3-Asp-Npg-B6-Asp-3COOHF-Ala-Ala-Phe-Leu-PyrS2-2F3MeF-BztA-Gln-NH2]: the IC50 stood at 566 nM.

For `CC(=O)N1CCC[C@]12CC=CCCCCC1(CCCCC=CCCCOC(=O)N3CC[C@@](C(=O)N[C@@H](Cc4ccccc4C(F)(F)F)C(=O)N[C@@H](Cc4csc5ccccc45)C(=O)N[C@@H](CCC(N)=O)C(N)=O)(C3)NC(=O)[C@H](CC(C)C)NC(=O)[C@H](Cc3ccccc3)NC(=O)[C@H](C)NC(=O)[C@H](C)NC(=O)[C@H](Cc3cccc(C(=O)O)c3)NC(=O)[C@H](CC(=O)O)NC1=O)NC(=O)[C@H](CC(C)(C)C)NC(=O)[C@H](CC(=O)O)NC2=O` (stereo partly drawn) [I-2512, Ac-PL3-Asp-Npg-B6-Asp-3COOHF-Ala-Ala-Phe-Leu-PyrS2-2F3MeF-BztA-Gln-NH2], the concentration for half-maximal inhibition (IC50) was determined as 245 nM.

In the case of `CC(=O)N1CCC[C@]12CC=CCCCCC1(CCCCC=CCCCOC(=O)N3CC[C@@](C(=O)N[C@@H](Cc4ccccc4C(F)(F)F)C(=O)N[C@@H](Cc4csc5ccccc45)C(=O)N[C@@H](CCC(N)=O)C(N)=O)(C3)NC(=O)[C@H](CC(C)C)NC(=O)[C@H](Cc3ccccc3)NC(=O)[C@H](C)NC(=O)[C@H](C)NC(=O)[C@H](Cc3cccc(C(=O)O)c3)NC(=O)[C@H](CC(=O)O)NC1=O)NC(=O)[C@H](CC(C)(C)C)NC(=O)[C@H](CC(=O)O)NC2=O` (stereo partly drawn) [I-2514, Ac-PL3-Asp-Npg-B6-Asp-3COOHF-Ala-Ala-Phe-Leu-PyrS2-2F3MeF-BztA-Gln-NH2], the IC50 was 74 nM.

Consider `CC(=O)N1CCC[C@]12CC=CCCCCC1(CCCCC=CCCCOC(=O)N3CC[C@@](C(=O)N[C@@H](Cc4ccccc4C(F)(F)F)C(=O)N[C@@H](Cc4csc5ccccc45)C(=O)N[C@@H](C)C(N)=O)(C3)NC(=O)[C@H](CC(C)C)NC(=O)[C@H](Cc3ccccc3)NC(=O)[C@H](C)NC(=O)[C@H](CCC(N)=O)NC(=O)[C@H](Cc3cccc(C(=O)O)c3)NC(=O)[C@H](CC(=O)O)NC1=O)NC(=O)[C@H](CC(C)(C)C)NC(=O)[C@H](CC(=O)O)NC2=O` (stereo partly drawn) [I-2516, Ac-PL3-Asp-Npg-B6-Asp-3COOHF-Gln-Ala-Phe-Leu-PyrS2-2F3MeF-BztA-Ala-NH2], for which the IC50 was determined as 209 nM.

For the molecule `CC(=O)N1CCC[C@]12CC=CCCCCC1(CCCCC=CCCOC(=O)N3CC[C@@](C(=O)N[C@@H](Cc4ccccc4C(F)(F)F)C(=O)N[C@@H](Cc4csc5ccccc45)C(=O)N[C@@H](C)C(N)=O)(C3)NC(=O)[C@H](CC(C)C)NC(=O)[C@H](Cc3ccccc3)NC(=O)[C@H](C)NC(=O)[C@H](CCC(N)=O)NC(=O)[C@H](Cc3cccc(C(=O)O)c3)NC(=O)[C@H](CC(=O)O)NC1=O)NC(=O)[C@H](CC(C)(C)C)NC(=O)[C@H](CC(=O)O)NC2=O` (stereo partly drawn) [I-2519, Ac-PL3-Asp-Npg-B6-Asp-3COOHF-Gln-Ala-Phe-Leu-PyrS1-2F3MeF-BztA-Ala-NH2], the IC50 was 94 nM.

For `CC(=O)N1CCC[C@]12CC=CCCCC1(CCCC=CCCCOC(=O)N3CC[C@@](C(=O)N[C@@H](Cc4ccccc4)C(=O)N[C@@H](Cc4csc5ccccc45)C(=O)N[C@@H](CC(=O)N4CCOCC4)C(N)=O)(C3)NC(=O)[C@H](CC(C)C)NC(=O)[C@H](Cc3ccccc3)NC(=O)[C@H](C)NC(=O)[C@H](CCCCNS(C)(=O)=O)NC(=O)[C@H](CCC(N)=O)NC(=O)[C@H](CC(=O)O)NC1=O)NC(=O)[C@H](CC1CCCCC1)NC(=O)[C@H](CC(N)=O)NC2=O` (stereo partly drawn) [I-2524, Ac-PL3-Asn-Cha-B5-Asp-Gln-[MeSO2]Lys-Ala-Phe-Leu-PyrS2-Phe-BztA-MorphAsn-NH2], the half-inhibitory concentration (IC50) worked out at 609 nM.

On to `CC(=O)N1CCC[C@]12CC=CCCCC1(CCCC=CCCCOC(=O)N3CC[C@@](C(=O)N[C@@H](Cc4ccccc4)C(=O)N[C@@H](Cc4csc5ccccc45)C(=O)N[C@@H](CC(=O)N4CCOCC4)C(N)=O)(C3)NC(=O)[C@H](CC(C)C)NC(=O)[C@H](Cc3ccccc3)NC(=O)[C@H](C)NC(=O)[C@H](CCCCNC(=O)C(F)(F)F)NC(=O)[C@H](CCC(N)=O)NC(=O)[C@H](CC(=O)O)NC1=O)NC(=O)[C@H](CC1CCCCC1)NC(=O)[C@H](CC(N)=O)NC2=O` (stereo partly drawn) [I-2525, Ac-PL3-Asn-Cha-B5-Asp-Gln-[CF3CO]Lys-Ala-Phe-Leu-PyrS2-Phe-BztA-MorphAsn-NH2], for which the half-maximal inhibitory concentration (IC50) amounted to 4290 nM.

A word on the IC50: it is the concentration needed to halve the response being measured.
